# Like-named read-outs stand apart in the source and are kept apart here.
# What was measured:
# BRAF^V600E = target: T1, BRAF^V600E (Homo sapiens, UniProt P15056, V600E); test: BRAF V600E enzymatic activity, FRET-based Z'-Lyte kinase assay; assay type: biochemical
# T1 construct: purchased Invitrogen
# Procedure: The experiments were performed according to the instructions of the manufacturer. […] For each assay, 10 μl kinase reactions were added to 384-well plate, mixed thoroughly, and incubated for 1 hour at room temperature. Then, a 5 μl development solution was added to each well and the plate was incubated for another 1 h at room temperature. Then, a 5 μl stop reagent was loaded to stop the reaction. For the control setting, a 5 μl phospho-peptide solution instead of kinase/peptide mixture was used as 100% phosphorylation control. […] The plate was measured on an EnVision Multilabel Reader (Perkin-Elmer). Curve fitting and data presentations were performed using GraphPad Prism, version 5.0. Every experiment was repeated at least two times.
# HDAC6 = target: T2, HDAC6 (Homo sapiens, UniProt Q9UBN7); test: HDAC6 fluorescent-based enzymatic activity assay; assay type: biochemical
# T2 construct: purchased BPS Bioscience
# T2 sequence (Q9UBN7 1-1215): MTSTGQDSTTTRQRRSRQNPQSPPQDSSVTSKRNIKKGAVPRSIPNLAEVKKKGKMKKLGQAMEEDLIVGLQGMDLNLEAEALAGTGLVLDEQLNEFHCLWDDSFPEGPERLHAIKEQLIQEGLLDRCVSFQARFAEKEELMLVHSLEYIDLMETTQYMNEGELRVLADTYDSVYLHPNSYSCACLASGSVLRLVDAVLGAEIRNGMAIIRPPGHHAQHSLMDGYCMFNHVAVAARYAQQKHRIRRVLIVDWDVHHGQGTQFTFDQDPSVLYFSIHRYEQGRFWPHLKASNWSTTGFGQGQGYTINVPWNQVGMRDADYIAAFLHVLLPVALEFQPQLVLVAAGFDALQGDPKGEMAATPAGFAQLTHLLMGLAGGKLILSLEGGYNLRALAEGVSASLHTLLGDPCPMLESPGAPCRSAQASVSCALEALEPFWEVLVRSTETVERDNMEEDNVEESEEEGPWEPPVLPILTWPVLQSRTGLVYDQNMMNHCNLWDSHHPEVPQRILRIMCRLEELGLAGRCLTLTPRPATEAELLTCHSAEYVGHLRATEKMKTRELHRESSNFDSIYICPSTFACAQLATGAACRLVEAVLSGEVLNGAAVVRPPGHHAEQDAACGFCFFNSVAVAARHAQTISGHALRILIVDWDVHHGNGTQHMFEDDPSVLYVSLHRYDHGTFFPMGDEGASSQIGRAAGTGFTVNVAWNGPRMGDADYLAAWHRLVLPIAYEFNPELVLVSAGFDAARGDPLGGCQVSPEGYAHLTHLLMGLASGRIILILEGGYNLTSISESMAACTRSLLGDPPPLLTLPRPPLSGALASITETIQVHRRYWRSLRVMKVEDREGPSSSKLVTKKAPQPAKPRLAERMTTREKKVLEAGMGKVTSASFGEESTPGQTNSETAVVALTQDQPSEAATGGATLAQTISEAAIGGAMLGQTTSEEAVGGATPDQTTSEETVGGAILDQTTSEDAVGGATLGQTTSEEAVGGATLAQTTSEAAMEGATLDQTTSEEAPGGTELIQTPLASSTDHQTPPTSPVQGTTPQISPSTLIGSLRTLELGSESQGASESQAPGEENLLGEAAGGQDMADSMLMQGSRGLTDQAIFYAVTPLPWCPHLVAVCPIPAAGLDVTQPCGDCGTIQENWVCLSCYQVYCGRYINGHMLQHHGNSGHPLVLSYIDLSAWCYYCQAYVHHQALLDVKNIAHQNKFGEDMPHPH
# Procedure: The purified recombinant Human HDACs and their corresponding substrates were purchased from BPS Bioscience (BPS Bioscience Inc., United States). The assays were carried out in a 384-well format using the BPS fluorescent–based HDAC activity assay according to the manufacturer’s protocol. In brief, […] of the HDAC reaction mixture was composed of HDAC assay buffer, […] BSA, serial diluted test compounds, appropriate concentration of HDACs, and […] fluorogenic substrate, the mixture was incubated at 37°C for 60 min, and then stopped by the addition of developer containing trypsin and TSA. After 20 min of incubation, the fluorescence was detected at the excitation wavelength of 360 nm and the emission wavelength of 460 nm using the EnVision Multilabel Reader (PerkinElmer Inc., United States). The analytical software, GraphPad Prism 5.0 (GraphPad Software, Inc., United States) was used to generate IC50 value via non-linear regression analysis.
# [1] = system: Ac-histone H3, Ac-α-tubulin, p-ERK in HT-29 cells; test: Western blot analysis of HDAC and RAF pathway in HT-29 cells; assay type: cell-based, human
# Procedure: FIGURE 3 Characterization of dual inhibition of HDAC and RAF pathway. Western blot analysis of 14b in HCT116 cells (A) and in HT-29 cells (B). Cells were treated with 0 μM, 0.12 μM, 0.37 μM, 1.1 μM, 3.3 μM, and 10 μM of drugs and incubated for 6 h. The cell lysis was subjected to Western blot analysis.
# The cells were treated with various concentrations of 14b for 6 h. Then, the cells were lysed using 1×SDS sample lysis buffer (CST recommended) with protease and phosphatase inhibitors. Cell lysates were loaded and electrophoresed onto 8–12% SDS-PAGE gel, and then the separated proteins were transferred to a PVDF film. The film was blocked with 5% BSA (Sigma-Aldrich, St. Louis, MO, United States) in a TBS solution containing 0.5% Tween-20 for 4 h at room temperature, then incubated with the corresponding primary antibody (1:1000–1:200) overnight at 4°C. After washing with TBST, HRP-conjugated secondary antibody was incubated for 2 h. The protein signals were visualized by the ECL Western Blotting Detection Kit (Thermo Scientific, Grand Island, NY, United States), and detected with Amersham Imager 600 system (GE, Boston, MA, United States).
# T1 sequence (P15056 whole entry V600E): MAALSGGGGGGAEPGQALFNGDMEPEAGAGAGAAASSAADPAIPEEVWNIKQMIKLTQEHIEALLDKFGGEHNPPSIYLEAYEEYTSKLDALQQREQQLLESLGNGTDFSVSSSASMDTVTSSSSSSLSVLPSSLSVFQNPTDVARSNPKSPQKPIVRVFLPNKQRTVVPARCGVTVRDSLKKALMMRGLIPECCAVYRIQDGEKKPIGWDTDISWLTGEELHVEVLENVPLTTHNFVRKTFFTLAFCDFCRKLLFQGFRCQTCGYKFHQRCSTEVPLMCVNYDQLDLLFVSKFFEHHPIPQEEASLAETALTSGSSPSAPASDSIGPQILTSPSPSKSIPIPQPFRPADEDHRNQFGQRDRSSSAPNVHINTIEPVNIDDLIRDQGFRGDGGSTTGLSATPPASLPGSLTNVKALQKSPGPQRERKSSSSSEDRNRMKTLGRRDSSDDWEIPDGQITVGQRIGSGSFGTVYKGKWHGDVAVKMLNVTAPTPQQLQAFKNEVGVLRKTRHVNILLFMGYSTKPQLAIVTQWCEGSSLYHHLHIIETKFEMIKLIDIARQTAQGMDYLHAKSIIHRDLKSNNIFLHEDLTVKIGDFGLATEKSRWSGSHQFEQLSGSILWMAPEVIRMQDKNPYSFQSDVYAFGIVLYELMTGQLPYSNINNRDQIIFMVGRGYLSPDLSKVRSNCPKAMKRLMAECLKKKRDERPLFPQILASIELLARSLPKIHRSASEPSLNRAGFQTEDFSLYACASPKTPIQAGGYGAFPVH
smiles,measurement,setting,value
"CC(C)(C)c1nc(-c2cccc(NS(=O)(=O)c3c(F)cccc3F)c2F)c(-c2ccnc(NCCCCCCC(=O)NO)n2)s1 [14b, 7-{[4-(2-(Tert-Butyl)-4-(3-((2,6-Difluorophenyl)Sulfonamido)-2-Fluorophenyl)Thiazol-5-yl)Pyrimidin-2-yl]Amino}-N-Hydroxyheptanamide]",IC50,BRAF^V600E,0.00171 µM
same,HDAC6 inhibition fold more potent than class I isoforms,"HDAC6; HDAC6 vs HDAC1, HDAC2, HDAC3, HDAC8",> 10 fold
same,HDAC6 inhibition fold more potent than class IIA HDACs,"HDAC6; HDAC6 vs HDAC4, HDAC5, HDAC7",> 800 fold
same,IC50,"HDAC6; Table 1, read-out: Enzymatic IC50 HDAC6",0.0492 µM
same,IC50,"HDAC6; Table 3 isoform panel, read-out: Enzyme inhibition HDAC6 (Class IIB)",0.049 µM
same,expression of BRAF,[1],did not affect the expression of BRAF itself
same,acetylated histone H3 (Ac-histone H3),"[1]; 0.12-10 μM, 6 h",upregulated
same,acetylated α-tubulin (Ac-α-tubulin),"[1]; 0.12-10 μM, 6 h",upregulated
same,phosphorylation of ERK (p-ERK),"[1]; 0.12-10 μM, 6 h",significantly inhibited at the lowest concentration of 0.12 μM

# Source: PMC9354042, “Discovery of BRAF/HDAC Dual Inhibitors Suppressing Proliferation of Human Colorectal Cancer Cells” (Frontiers in Chemistry, 2022)
